Results: patent publication US10131669B2, “Pyrazolopyrimidine compounds” (Pfizer Inc., priority 2014, dated 2018)
Counter-ions that a name gives are not always drawn.

Columns and labels:
Type in all cases: biochemical
Human PDE4A3 = molecular target: T1, Human PDE4A3 (Homo sapiens, UniProt P27815); assay: PDE4A3 Scintillation Proximity Assay (SPA), inhibition of enzyme activity; details: geometric mean of 2-7 determinations unless otherwise indicated (b: ≥8 determinations; c: single determination), 1 μM cAMP, 30 min at 25° C., read-out: Human PDE4A FL
T1 construct: His6 (N); FLAG (C); made in house; host or cells: insect cells (baculovirus, pFastBac)
Excerpt: (§1) Human PDE4A3 coding sequence (amino acids 2 to 825 from the sequence with accession number NP_001104779) was cloned into the baculovirus expression vector pFastBac (Invitrogen) engineered to include an N-terminal His6 affinity tag and a c-terminal FLAG affinity tag to aid in purification. The recombinant Bacmid was isolated and used to transfect insect cells to generate a viral stock. To generate cell paste for purification, insect cells were infected with the virus stock and cells were harvested 72 hours after infection. Insect cell paste was lysed and after centrifugation, the supernatant was batch bound to Ni-NTA agarose (GE Healthcare) and eluted with 250 mM imidazole. This eluate was diluted with FLAG buffer (50 mM Tris HCL pH 7.5, 100 mM NaCl, 5% Glycerol, 1 mM TCEP with protease inhibitors) and batch bound to ant-FLAG M2 agarose (Sigma) overnight at 4° C. The agarose was packed into a column, washed with buffer and eluted with buffer containing elute using 250 ug/ml Flag-peptide. Fractions were analyzed using SDS-PAGE Coomassie blue staining and pooled based on purity. Pooled fractions were chromatographed on a S200 120 ml column (GE Healthcare) in 50 mM Tris HCL pH 7.5, 150 mM NaCl, 10% Glycerol, 2 mM TCEP with protease inhibitors. PDE4A3 fractions were analyzed by SDS-PAGE Coomassie blue staining, pooled based on purity, dialyzed against 50 mM Tris HCL pH 7.5, 100 mM NaCl, 20% Glycerol, 2 mM TCEP, frozen and stored at −80° C.
(§2) The PDE4A3, PDE4B1, PDE4C1 and PDE4D3 assays use the Scintillation Proximity Assay (SPA) technology to measure the inhibition of human recombinant […], PDE4C1, and PDE4D3 enzyme activity by compounds in vitro. The PDE4A1, PDE4B3, PDE4C1, and PDE4D3 assays are run in parallel using identical parameters, except for the concentration of enzyme (80 pM PDE4A3, 40 pM PDE4B3, 40 pM PDE4C1 and 10 pM PDE4D). The assays are performed in a 384-well format with 50 uL assay buffer (50 mM TRIS pH7.5; 1.3 mM MgCl2; 0.01% Brij) containing enough PDE4A3, PDE4B1, PDE4C1, and PDE4D to convert ˜20% of substrate (1 μM cAMP consisting of 20 nM 3H-cAMP+[…] cold cAMP) and a range of inhibitors. Reactions are incubated for 30 min at 25° C. The addition of 20 uL of 8 mg/ml yitrium silicate SPA beads (Perkin Elmer) stops the reaction. The plates are sealed (TopSeal, Perkin Elmer) and the beads are allowed to settle for 8 hrs, after which they are read on the Trilux Microbeta overnight.

Human PDE4B1 = molecular target: T2, Human PDE4B1 (Homo sapiens, UniProt Q07343, S133E/S654A/S659A/S661A); assay: PDE4B1 Scintillation Proximity Assay (SPA), inhibition of enzyme activity; details: geometric mean of 2-7 determinations unless otherwise indicated (b: ≥8 determinations; c: single determination); 1 μM cAMP, 30 min at 25° C.; read-out: Human PDE4B FL; IC50
T2 construct: His6 (N); thrombin cleavage site (N); made in house; host or cells: insect cells (baculovirus, pFastBac)
Description: The recombinant Bacmid was isolated and used to transfect insect cells to generate a viral stock. To generate cell paste for purification, insect cells were infected with the virus stock and cells were harvested 72 hours after infection as described in Seeger, T. F. et al., Brain Research 985 (2003) 113-126. Insect cell paste was lysed and after centrifugation, the supernatant was chromatographed on Ni-NTA agarose (Qiagen) as described in Seeger, T. F. et al., Brain Research 985 (2003) 113-126. Ni-NTA agarose eluting fractions containing PDE4 were pooled, diluted with Q buffer A (20 mM Tris HCl pH 8, 5% glycerol, 1 mM TCEP) to reduce NaCl to ˜100 mM and loaded on a Source 15Q (GE Healthcare) column. After washing with Q buffer A/10% buffer B to baseline, PDE4D was eluted with a gradient from 10% to 60% of Buffer B (20 mM Tris HCl pH 8, 1 M NaCl, 5% glycerol, 1 mM TCEP). PDE4D fractions were analyzed by SDS-PAGE Coomassie blue staining, pooled based on purity, frozen and stored at −80° C.
as §2

Human PDE4C1 = molecular target: T3, Human PDE4C1 (Homo sapiens, UniProt Q08493); assay: PDE4C1 Scintillation Proximity Assay (SPA), inhibition of enzyme activity; details: geometric mean of 2-7 determinations unless otherwise indicated (b: ≥8 determinations; c: single determination), 1 μM cAMP, 30 min at 25° C., read-out: Human PDE4C FL
T3 construct: His6 (N); FLAG (C); made in house; host or cells: insect cells (baculovirus, pFastBac)
Description: as §1, with “The” for “Human PDE4A3 coding sequence (amino acids 2 to 825 from the sequence with accession number NP_001104779) was cloned into the baculovirus expression vector pFastBac (Invitrogen) engineered to include an N-terminal His6 affinity tag and a c-terminal FLAG affinity tag to aid in purification. The”, “PDE4C1” for “PDE4A3”
as §2

human PDE4D3 = molecular target: T4, human PDE4D3 (Homo sapiens, UniProt Q08499); assay: PDE4D3 Scintillation Proximity Assay (SPA), inhibition of enzyme activity; details: geometric mean of 2-7 determinations unless otherwise indicated (b: ≥8 determinations; c: single determination); 1 μM cAMP, 30 min at 25° C.; read-out: Human PDE4D FL; IC50
T4 construct: His6 (C); made in house; host or cells: insect cells (baculovirus, pFastBac)
Description: The recombinant Bacmid was isolated and used to transfect insect cells to generate a viral stock. To generate cell paste for purification, insect cells were infected and cells were harvested 72 hours after infection. Insect cell paste was lysed and after centrifugation, the supernatant was chromatographed on Ni-NTA agarose (Qiagen) as described in Seeger, T. F. et al., Brain Research 985 (2003) 113-126. Ni-NTA agarose eluting fractions containing PDE4 were pooled, diluted with Q Buffer A (50 mM Tris HCl pH 8, 4% glycerol, 100 mM NaCl, 1 mM TCEP, Protease inhibitors EDTA-free (Roche)) to reduce NaCl to ˜200 mM, and loaded on a Q Sepharose (GE Healthcare) column. After washing with Q buffer A to baseline, PDE4D was eluted with a gradient from 10% to 60% of Buffer B (50 mM Tris HCl pH 8, 1 M NaCl, 4% glycerol, 1 mM TCEP). PDE4D fractions were analyzed by SDS-PAGE Coomassie blue staining, pooled based on purity, frozen and stored at −80° C.
as §2

T2 sequence (Q07343 122-736 S133E/S654A/S659A/S661A): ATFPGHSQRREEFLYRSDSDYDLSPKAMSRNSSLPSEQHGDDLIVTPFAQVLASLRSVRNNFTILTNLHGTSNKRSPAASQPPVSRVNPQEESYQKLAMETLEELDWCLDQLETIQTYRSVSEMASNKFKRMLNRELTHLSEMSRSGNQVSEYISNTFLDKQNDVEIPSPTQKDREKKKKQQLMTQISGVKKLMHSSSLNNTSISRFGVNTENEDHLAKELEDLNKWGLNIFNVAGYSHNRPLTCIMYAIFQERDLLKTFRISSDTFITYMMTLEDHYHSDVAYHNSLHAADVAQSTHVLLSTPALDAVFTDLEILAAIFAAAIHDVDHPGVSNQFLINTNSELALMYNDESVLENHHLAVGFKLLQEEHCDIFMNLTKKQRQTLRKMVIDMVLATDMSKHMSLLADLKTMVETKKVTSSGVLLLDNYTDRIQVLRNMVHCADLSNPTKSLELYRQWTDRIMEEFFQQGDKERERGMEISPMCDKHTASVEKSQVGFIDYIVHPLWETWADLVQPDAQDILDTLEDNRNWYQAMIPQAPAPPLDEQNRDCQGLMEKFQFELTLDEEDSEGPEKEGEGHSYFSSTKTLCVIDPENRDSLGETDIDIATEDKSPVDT
T3 sequence (Q08493 2-712): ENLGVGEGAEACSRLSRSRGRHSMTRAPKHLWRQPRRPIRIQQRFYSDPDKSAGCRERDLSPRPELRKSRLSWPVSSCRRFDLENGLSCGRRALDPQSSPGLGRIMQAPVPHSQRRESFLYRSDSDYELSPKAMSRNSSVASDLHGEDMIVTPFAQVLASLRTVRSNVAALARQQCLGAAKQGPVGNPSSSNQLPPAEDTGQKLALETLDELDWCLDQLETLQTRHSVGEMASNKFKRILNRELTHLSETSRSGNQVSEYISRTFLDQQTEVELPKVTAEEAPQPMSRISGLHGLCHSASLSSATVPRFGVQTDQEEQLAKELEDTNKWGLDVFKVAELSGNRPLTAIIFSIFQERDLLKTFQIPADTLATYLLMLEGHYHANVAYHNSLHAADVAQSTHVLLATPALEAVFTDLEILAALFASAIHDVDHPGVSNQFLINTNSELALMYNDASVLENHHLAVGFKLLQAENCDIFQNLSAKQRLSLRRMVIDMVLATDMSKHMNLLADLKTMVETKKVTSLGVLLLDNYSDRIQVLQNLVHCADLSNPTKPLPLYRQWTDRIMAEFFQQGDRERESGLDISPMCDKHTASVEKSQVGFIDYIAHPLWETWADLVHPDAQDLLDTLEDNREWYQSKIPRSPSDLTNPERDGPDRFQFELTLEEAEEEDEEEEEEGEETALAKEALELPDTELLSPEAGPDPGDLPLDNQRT
T1 sequence (P27815 2-825 isoform P27815-6): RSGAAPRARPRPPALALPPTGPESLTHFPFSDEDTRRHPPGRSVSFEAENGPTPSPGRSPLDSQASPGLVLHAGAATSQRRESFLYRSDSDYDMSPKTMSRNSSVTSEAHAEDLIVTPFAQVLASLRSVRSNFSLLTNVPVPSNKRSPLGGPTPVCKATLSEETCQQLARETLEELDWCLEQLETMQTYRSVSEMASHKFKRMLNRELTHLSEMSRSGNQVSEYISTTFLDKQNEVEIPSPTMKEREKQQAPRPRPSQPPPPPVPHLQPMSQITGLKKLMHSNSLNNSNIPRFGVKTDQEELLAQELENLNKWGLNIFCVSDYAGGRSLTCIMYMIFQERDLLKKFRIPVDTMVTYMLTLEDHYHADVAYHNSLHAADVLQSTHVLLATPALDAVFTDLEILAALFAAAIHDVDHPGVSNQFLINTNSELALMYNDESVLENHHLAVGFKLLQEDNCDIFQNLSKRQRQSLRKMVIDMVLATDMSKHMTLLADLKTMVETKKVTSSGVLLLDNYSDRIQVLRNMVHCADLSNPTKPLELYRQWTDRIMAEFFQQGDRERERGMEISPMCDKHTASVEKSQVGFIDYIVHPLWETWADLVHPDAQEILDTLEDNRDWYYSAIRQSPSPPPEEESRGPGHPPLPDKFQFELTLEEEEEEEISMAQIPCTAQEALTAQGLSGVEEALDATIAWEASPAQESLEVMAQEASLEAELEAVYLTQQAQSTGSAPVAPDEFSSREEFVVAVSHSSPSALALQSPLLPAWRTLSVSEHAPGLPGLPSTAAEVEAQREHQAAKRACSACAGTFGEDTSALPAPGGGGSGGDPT
T4 sequence (Q08499 186-808): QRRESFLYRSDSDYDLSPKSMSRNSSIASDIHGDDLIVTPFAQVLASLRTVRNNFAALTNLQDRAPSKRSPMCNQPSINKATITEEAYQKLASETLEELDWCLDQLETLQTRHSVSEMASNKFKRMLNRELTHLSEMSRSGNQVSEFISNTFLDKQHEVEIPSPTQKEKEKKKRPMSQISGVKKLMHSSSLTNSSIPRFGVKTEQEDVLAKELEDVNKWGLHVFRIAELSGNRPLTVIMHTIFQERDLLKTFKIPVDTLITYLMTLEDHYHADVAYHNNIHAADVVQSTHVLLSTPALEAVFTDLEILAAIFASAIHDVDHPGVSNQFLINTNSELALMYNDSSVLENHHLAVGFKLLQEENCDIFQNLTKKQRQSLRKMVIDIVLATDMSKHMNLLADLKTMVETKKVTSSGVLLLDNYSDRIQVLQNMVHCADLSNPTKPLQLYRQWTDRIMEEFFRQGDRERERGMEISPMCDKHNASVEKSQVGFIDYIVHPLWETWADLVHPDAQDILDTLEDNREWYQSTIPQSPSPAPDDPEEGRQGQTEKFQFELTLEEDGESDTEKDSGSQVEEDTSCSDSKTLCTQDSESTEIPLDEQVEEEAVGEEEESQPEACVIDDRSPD

| IC50 (Human PDE4A3) [nM] | IC50 (Human PDE4B1) [nM] | IC50 (Human PDE4C1) [nM] | IC50 (human PDE4D3) [nM] | SMILES |
| --- | --- | --- | --- | --- |
| 1 | 2 | 4.47 | 52.6 | Cc1cc(Cl)c(F)cc1-c1c(C(=O)NC2CC2)nn2cc(F)cnc12 [Example 64, 3-(4-chloro-5-fluoro-2-methylphenyl)-N-cyclopropyl-6-fluoropyrazolo[1,5-a]pyrimidine-2-carboxamide] |
| 663 | 2070 | 435 | > 28500 | CNC(=O)c1nn2cccnc2c1-c1ccc(Cl)cc1 [Example 73, 3-(4-chlorophenyl)-N-methylpyrazolo[1,5-a]pyrimidine-2-carboxamide] |
| 67.2 | 452 | 452 | > 25200 | O=C(NC1(C(F)(F)F)CC1)c1nn2cccnc2c1-c1ccc(Cl)cc1 [Example 36, 3-(4-chlorophenyl)-N-[1-(trifluoromethyl)cyclopropyl]pyrazolo[1,5-a]pyrimidine-2-carboxamide, hydrochloride salt] |
| 15.9 | 54.3 | 79.8 | 2510 | CCNC(=O)c1nn2cccnc2c1-c1cc(F)c(C#N)cc1C [Example 16, 3-(4-cyano-5-fluoro-2-methylphenyl)-N-ethylpyrazolo[1,5-a]pyrimidine-2-carboxamide] |
| 144 | 488 | 314 | > 16500 | Cc1cc(Cl)ccc1-c1c(C(=O)NC(C)C)nn2cccnc12 [Example 51, 3-(4-chloro-2-methylphenyl)-N-(propan-2-yl)pyrazolo[1,5-a]pyrimidine-2-carboxamide] |
| 8.75 | 30.5 | 28.5 | 1060 | Cc1cc(Cl)ccc1-c1c(C(=O)NC2CC2)nn2cc(F)cnc12 [Example 55, 3-(4-chloro-2-methylphenyl)-N-cyclopropyl-6-fluoropyrazolo[1,5-a]pyrimidine-2-carboxamide] |
| 8.42 | 25.9 | 39.4 | 442 | Cc1cc(C#N)c(F)cc1-c1c(C(=O)NC2CC2)nn2cccnc12 [Example 23, 3-(4-cyano-5-fluoro-2-methylphenyl)-N-cyclopropylpyrazolo[1,5-a]pyrimidine-2-carboxamide] |
| 8.77 | 16.1 | 23.4 | 1080 | O=C(NC1CC1)c1nn2cc(F)cnc2c1-c1ccc(Cl)cc1 [Example 7, 3-(4-Chlorophenyl)-N-cyclopropyl-6-fluoropyrazolo[1,5-a]pyrimidine-2-carboxamide] |
| 22 | 6.06 | 48 | 993 | O=C(c1nn2cccnc2c1-c1ccc(Cl)c(F)c1)N1CCC1 [Example 12, azetidin-1-yl[3-(4-chloro-3-fluorophenyl)pyrazolo[1,5-a]pyrimidin-2-yl]methanone] |
| 745 | 377 | 292 | > 28000 | N#Cc1ccc(-c2c(C(=O)N3CCC3)nn3cccnc23)c(F)c1 [Example 75, 4-[2-(azetidin-1-ylcarbonyl)pyrazolo[1,5-a]pyrimidin-3-yl]-3-fluorobenzonitrile] |
| 10.2 | 25.5 | 11.1 | 797 | O=C(NC1CC1)c1nn2cccnc2c1-c1ccc(Cl)c(F)c1F [Example 71, 3-(4-chloro-2,3-difluorophenyl)-N-cyclopropylpyrazolo[1,5-a]pyrimidine-2-carboxamide] |
| 4.04 | 20.1 | 9 | 430 | O=C(NC1CC1)c1nn2cc(F)cnc2c1-c1ccc(Cl)c(F)c1F [Example 58, 3-(4-chloro-2,3-difluorophenyl)-N-cyclopropyl-6-fluoropyrazolo[1,5-a]pyrimidine-2-carboxamide] |
| 3.92 | 22.3 | 19.4 | 78.4 | O=C(NC1CC1)c1nn2cc(F)cnc2c1-c1ccnc(OC(F)F)c1 [Example 56, N-cyclopropyl-3-[2-(difluoromethoxy)pyridin-4-yl]-6-fluoropyrazolo[1,5-a]pyrimidine-2-carboxamide] |
| 22 | 51 | 42.1 | 1320 | N#Cc1cc(F)c(-c2c(C(=O)NC3CC3)nn3cccnc23)cc1F [Example 45, 3-(4-cyano-2,5-difluorophenyl)-N-cyclopropylpyrazolo[1,5-a]pyrimidine-2-carboxamide] |
| 553 | 894 | 1540 | > 30000 | CCCC(=O)Nc1nn2cccnc2c1-c1ccc(Cl)c(F)c1 [Example 4, N-[3-(4-Chloro-3-fluorophenyl)pyrazolo[1,5-a]pyrimidin-2-yl]butanamide] |
| 0.461 | 2.71 | 2.83 | 92.1 | O=C(NC1CC1)c1nn2cc(F)cnc2c1-c1cc(F)c(Cl)c(F)c1 [Example 57, 3-(4-chloro-3,5-difluorophenyl)-N-cyclopropyl-6-fluoropyrazolo[1,5-a]pyrimidine-2-carboxamide] |
